{"source": "patent US20120328526A1", "about": "“Modulation of Nad+ Activity in Neuropathophysiological Conditions and Uses Thereof” (University of Maryland, Baltimore, priority 2011, published 2012)", "key": {"tissue NAD(H) levels": {"system": "tissue NAD(H) levels", "experiment": "Tissue NAD(H) levels in post-ischemic brain regions (enzymatic cycling assay)", "type": "in vivo, mouse", "conditions": "10 min forebrain ischemia, NMN intraperitoneally at 1 h of reperfusion, measured at 24 h of recovery", "experimental": "FIGS. 3A-3B show the effect of forebrain ischemia and nicotinamide mononucleotide administration on tissue NAD(H) levels. Mice were subjected to 10 min transient forebrain ischemia and allowed to recover for 24 h. After decapitation their brains were removed, the designated regions dissected and frozen in liquid nitrogen. One group of animals received nicotinamide mononucleotide at 1 hour of recovery. The NAD content was determined following perchloric acid extraction and utilized a coupled fluorometric cycling enzymatic assay (FIG. 3A). There is significant loss of NAD^+ in striatum, CA1, and DG regions. *p<0.05. […] Black: sham; white: ischemia; gray: NMN treatment. FIG. 3B: Effect of ischemia on CD38 activity. […] The CD38 enzyme activity was determined using 1-etheno-NAD that, when hydrolyzed by CD38, generates a fluorescent product. The rate of fluorescence increase corresponds to the CD38 enzyme activity. […]\nThe tissue NAD(H) levels were determined utilizing an enzymatic cycling assay. […] The parietal cortex, striatum, the CA1 sector and CA3-DG regions of the hippocampus were dissected and the tissue NAD(H) levels were determined following perchloric acid extraction. […] Nicotinamide mononucleotide was administrated intraperitoneally at 1 h of reperfusion and the tissue NAD(H) content was determined at 24 h of recovery."}, "[1]": {"system": "C57Bl/6 mice subjected to moderate-level traumatic brain injury", "experiment": "Beam walk test after controlled cortical impact traumatic brain injury", "type": "in vivo, mouse", "conditions": "NMN 500 mg/kg I.P. at 1 hour post-injury, 7 days post-injury, p<0.001", "experimental": "(§1) FIGS. 9A-9B show traumatic brain injury-induced deficits in sensorimotor function and cognition are ameliorated by nicotinamide mononucleotide treatment. FIG. 9A: Fine motor coordination deficits were quantified using a beam walk test in C57Bl/6 mice subjected to moderate-level traumatic brain injury and treated with nicotinamide mononucleotide (500 mg/kg, I.P.) or equal volume of vehicle at 1 hour post-injury. Hindlimb foot placement was recorded up to 7 days post-injury and the number of foot faults recorded from 50 steps. Naïve C57Bl/6 mice served as a control group. […] Analysis was by repeated measures one-way ANOVA, followed by post-hoc adjustments using Student-Newman-Keuls test. Mean ±S.E.M.; n=5/group. FIG. 9B: Cognitive performance was analyzed by measuring the number of anti-clockwise and clockwise rotations of traumatic brain injury mice in an open field test performed at 7 days post-injury.\nIn a clinically relevant model of traumatic brain injury, controlled cortical impact (CCI) (Fox et al. 1998), was induced in C57Bl/6 mice and these animals were followed for up to 1 year post-injury to assess post-traumatic tissue loss and neurodegeneration. […] One group was evaluated for changes between 24 h and 3 months post-injury; a second group was used to compare changes in TBI-induced lesion volume between 6 and 12 months. […]"}, "[2]": {"system": "traumatic brain injury mice", "experiment": "Open field test (anti-clockwise/clockwise rotations) after traumatic brain injury", "type": "in vivo, mouse", "conditions": "NMN 500 mg/kg I.P. at 1 hour post-injury; 7 days post-injury; listed as NMN", "experimental": "as §1\nThe effect of nicotinamide mononucleotide on traumatic brain injury-induced changes in fine motor coordination examined using a beam walking task in which mice were trained to cross an elevated narrow wooden beam. The mouse was placed on the left end of the beam and the number of foot faults for the right hind limb was recorded over 50 steps on the beam. […] Their activity was measured and recorded using the Any-maze video tracking system. […]"}, "CD38": {"biological_target": "T1, CD38 (Mus musculus, UniProt P56528)", "T1 construct": "Addition of isolated brain mitochondria into medium containing 1-etheno-NAD (eNAD) results in generation of fluorescent product; from tissue; host or cells: isolated brain mitochondria", "T1 sequence (P56528 1-304)": "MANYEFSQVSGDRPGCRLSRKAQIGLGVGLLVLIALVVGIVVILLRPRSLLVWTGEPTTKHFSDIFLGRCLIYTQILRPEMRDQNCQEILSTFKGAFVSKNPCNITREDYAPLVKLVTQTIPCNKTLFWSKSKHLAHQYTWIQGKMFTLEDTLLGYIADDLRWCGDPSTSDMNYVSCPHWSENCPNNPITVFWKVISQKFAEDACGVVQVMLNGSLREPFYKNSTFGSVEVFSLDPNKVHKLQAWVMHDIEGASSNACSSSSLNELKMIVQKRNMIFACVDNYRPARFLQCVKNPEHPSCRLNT", "experiment": "1-etheno-NAD hydrolysis by isolated brain mitochondria", "type": "biochemical", "conditions": "NMN 1 mM", "experimental": "Addition of isolated brain mitochondria into medium containing 1-etheno-NAD (eNAD) results in generation of fluorescent product. This NAD catabolism is inhibited by nicotinamide mononucleotide (1 mM). […] In brain tissue of sham-operated animals the CD38 expression is very low. […] This increase is observed particularly in non-neuronal cells that resemble post-ischemic microglia."}}, "note": "Entries after “also recorded” stand apart in the source; their conditions may differ.", "data": [{"smiles": "NC(=O)c1ccc[n+]([C@@H]2O[C@H](COP(=O)([O-])O)[C@@H](O)[C@H]2O)c1", "note": "[nicotinamide mononucleotide]", "values": [{"measurement": "post-ischemic brain tissue NAD(H) levels", "setting": "tissue NAD(H) levels", "result": "reversed; also recorded: complete recovery of brain tissue NAD(H) levels"}, {"measurement": "post-ischemic brain tissue NAD(H) levels", "setting": "tissue NAD(H) levels; listed as NMN", "result": "prevented the post-ischemic NAD catabolism"}, {"measurement": "fine motor coordination (beam walk foot faults) vs vehicle-treated TBI mice", "setting": "[1]", "result": "significant improvement in motor performance"}, {"measurement": "fine motor coordination (beam walk foot faults) vs vehicle-treated TBI mice", "setting": "[1]; listed as NMN", "result": "significantly reduced deficits in fine motor coordination"}, {"measurement": "cognitive performance: anti-clockwise rotations in open field test", "setting": "[2]", "result": "virtually indistinguishable from the naïve mice; also recorded: reduced anti-clockwise rotations"}, {"measurement": "NAD catabolism (eNAD fluorescent product) by isolated brain mitochondria", "setting": "CD38", "result": "inhibited"}]}]}
